{
  "source": "patent USRE38984E1",
  "about": "“Antifungal combination therapy” (Merck & Co., Inc., priority 1996, dated 2006)",
  "key": {"C. albicans [1]": {"tested_on": "C. albicans", "experiment": "drug interaction and efficacy study against disseminated candidiasis", "format": "in vivo", "settings": "Compound I 0.03 mg/kg and lower plus AmB 0.03 mg/kg and lower", "description": "(§1) Drug interaction and efficacy studies with Compound I combined with either AmB or FCZ against disseminated candidiasis, aspergillosis and cryptococcosis were performed."}, "C. neoformans [2]": {"tested_on": "C. neoformans", "experiment": "drug interaction and efficacy study against cryptococcosis in mice", "format": "in vivo", "description": "as §1"}, "[3]": {"experiment": "drug interaction and efficacy studies against disseminated candidiasis, aspergillosis and cryptococcosis (overall findings)", "format": "in vivo", "description": "as §1"}, "A. fumigatus [4]": {"tested_on": "A. fumigatus", "experiment": "drug interaction and efficacy study against disseminated aspergillosis", "format": "in vivo", "settings": "Compound I 0.008 mg/kg combined with AmB 0.12 mg/kg, over the compounds administered alone", "description": "as §1"}, "A. fumigatus [5]": {"tested_on": "A. fumigatus", "experiment": "broth microdilution antifungal susceptibility / drug combination testing in vitro (NCCLS M27-T)", "format": "cell-based", "description": "(§2) This has been shown using a broth microdilution technique which is the standard method for antifungal susceptibility testing proposed by the NCCLS (protocol M27-T). Sub-inhibitory concentrations of Compound I in combination with sub-inhibitory concentrations of AmB and sub-inhibitory concentrations of FCZ were employed. The minimal inhibitory concentrations (MICS) for AmB and Compound I were defined as the lowest drug concentration at which there was an absence of growth.\n(§3) Additional drug combination testing in vitro was performed to evaluate combinations of Compound I with AmB and FCZ against clinical isolates. There was no antagonism evident between Compound I and AmB against C. albicans, A. fumigatus and C. neoformans. Fractional inhibitory indices (FIC) were approximately 0.50 or lower, indicative of additive or synergistic activity."}, "C. albicans [6]": {"tested_on": "C. albicans", "experiment": "broth microdilution antifungal susceptibility / drug combination testing in vitro (NCCLS M27-T)", "format": "cell-based", "description": "as §2, §3"}, "C. neoformans [7]": {"tested_on": "C. neoformans", "experiment": "broth microdilution antifungal susceptibility / drug combination testing in vitro (NCCLS M27-T)", "format": "cell-based", "description": "as §2, §3"}, "[8]": {"settings": "Compound I with AmB, sub-inhibitory concentrations"}, "[9]": {"settings": "in vitro drug combination, clinical isolates, indicative of additive or synergistic activity"}},
  "data": [
    {"compound": "CCC(C)CC(C)CCCCCCCCC(=O)N[C@H]1C[C@@H](O)[C@@H](NCCN)NC(=O)[C@@H]2[C@@H](O)CCN2C(=O)[C@H]([C@H](O)CCN)NC(=O)[C@H]([C@H](O)[C@@H](O)c2ccc(O)cc2)NC(=O)[C@@H]2C[C@@H](O)CN2C(=O)[C@H]([C@@H](C)O)NC1=O", "note": "(stereo partly drawn) [Compound I]", "values": [
      {"measurement": "efficacy of combination versus single agents", "setting": "C. albicans [1]", "value": "more efficacious than either agent administered alone"},
      {"measurement": "antagonism of efficacy", "setting": "C. neoformans [2]; FCZ in combination with Compound I, cryptococcosis in mice", "value": "no antagonism of efficacy"},
      {"measurement": "effects on efficacy", "setting": "C. neoformans [2]; combinations of Compound I and FCZ at certain concentrations", "value": "Beneficial effects on efficacy"},
      {"measurement": "FIC values in vivo", "setting": "[3]; Compound I and AmB, suggesting additive or synergistic activity in vivo", "value": "approximately 0.50"},
      {"measurement": "adverse effects with combinations", "setting": "[3]; Compound I combined with either AmB or FCZ, at high, use or lower concentrations", "value": "no adverse effects"},
      {"measurement": "antagonism of efficacy", "setting": "[3]; either AmB or FCZ combined with Compound I", "value": "no antagonism of efficacy"},
      {"measurement": "survival", "setting": "A. fumigatus [4]", "value": "Significant improvement in survival"},
      {"measurement": "activity of combination therapy in vitro", "setting": "A. fumigatus [5]; [8]", "value": "enhanced activity"},
      {"measurement": "Fractional inhibitory indices (FIC)", "setting": "A. fumigatus [5]; [9]", "value": "≤ 0.50"},
      {"measurement": "antagonism between Compound I and AmB", "setting": "A. fumigatus [5]; in vitro, clinical isolates", "value": "no antagonism"},
      {"measurement": "activity of combination therapy in vitro", "setting": "C. albicans [6]; [8]", "value": "enhanced activity"},
      {"measurement": "Fractional inhibitory indices (FIC)", "setting": "C. albicans [6]; [9]", "value": "≤ 0.50"},
      {"measurement": "antagonism between Compound I and AmB", "setting": "C. albicans [6]; in vitro, clinical isolates", "value": "no antagonism"},
      {"measurement": "effect on activity of fluconazole (CFU numbers)", "setting": "C. neoformans [7]; Compound I combined with fluconazole 0.25, 0.50 and 1.0 μg/ml", "value": "significantly enhanced the activity of fluconazole"},
      {"measurement": "activity of combination therapy in vitro", "setting": "C. neoformans [7]; Compound I with AmB and FCZ, sub-inhibitory concentrations, strains of C. neoformans", "value": "enhanced activity"},
      {"measurement": "colony forming units (CFUs)", "setting": "C. neoformans [7]; amphotericin B 0.0075, 0.015 and 0.03 μg/ml combined with Compound I 4, 8 and 16 μg/ml", "value": "markedly reduced"},
      {"measurement": "Fractional inhibitory indices (FIC)", "setting": "C. neoformans [7]; [9]", "value": "≤ 0.50"},
      {"measurement": "antagonism between Compound I and AmB", "setting": "C. neoformans [7]; in vitro, clinical isolates", "value": "no antagonism"}
    ]}
  ]
}
